# Experimental data reported in ChEMBL document CHEMBL1138731, “Conversion of human-selective PPARalpha agonists to human/mouse dual agonists: a molecular modeling analysis” (Bioorg Med Chem Lett, 2004).
# Assays:
# [1] = target: T1, Peroxisome proliferator-activated receptor alpha (Mus musculus, UniProt P23204); test: Transactivation activity for mouse Peroxisome proliferator activated receptor alpha
# T1 sequence (P23204 whole entry): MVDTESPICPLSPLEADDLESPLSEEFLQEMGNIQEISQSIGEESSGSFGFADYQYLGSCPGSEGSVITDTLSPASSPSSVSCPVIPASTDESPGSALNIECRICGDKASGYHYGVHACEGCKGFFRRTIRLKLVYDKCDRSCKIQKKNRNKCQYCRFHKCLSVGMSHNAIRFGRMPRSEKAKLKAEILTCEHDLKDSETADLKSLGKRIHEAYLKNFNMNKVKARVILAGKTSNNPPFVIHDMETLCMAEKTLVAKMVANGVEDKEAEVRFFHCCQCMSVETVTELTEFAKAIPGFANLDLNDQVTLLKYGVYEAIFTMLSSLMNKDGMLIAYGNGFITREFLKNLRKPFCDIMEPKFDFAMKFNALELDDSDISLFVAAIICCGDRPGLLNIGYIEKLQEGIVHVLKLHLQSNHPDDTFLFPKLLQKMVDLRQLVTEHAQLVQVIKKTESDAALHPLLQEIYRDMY
# [2] = target: T2, Peroxisome proliferator-activated receptor alpha (Homo sapiens, UniProt Q07869); test: Transactivation activity for human Peroxisome proliferator activated receptor alpha
# T2 sequence (Q07869 whole entry): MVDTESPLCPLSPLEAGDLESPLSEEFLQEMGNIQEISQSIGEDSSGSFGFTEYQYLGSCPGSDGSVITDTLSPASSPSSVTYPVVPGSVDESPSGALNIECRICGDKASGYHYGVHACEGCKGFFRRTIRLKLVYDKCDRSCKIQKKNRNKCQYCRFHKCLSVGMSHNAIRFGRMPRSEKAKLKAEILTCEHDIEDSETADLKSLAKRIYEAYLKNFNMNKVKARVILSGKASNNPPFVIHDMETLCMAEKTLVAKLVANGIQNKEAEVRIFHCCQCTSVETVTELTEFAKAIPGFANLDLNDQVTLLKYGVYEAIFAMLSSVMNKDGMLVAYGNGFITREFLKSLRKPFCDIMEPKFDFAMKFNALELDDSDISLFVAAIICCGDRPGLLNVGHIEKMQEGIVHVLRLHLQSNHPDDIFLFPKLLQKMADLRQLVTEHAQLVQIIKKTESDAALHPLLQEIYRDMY
# [3] = target: T1, Peroxisome proliferator-activated receptor alpha; test: In vitro inhibition of mouse Peroxisome proliferator activated receptor alpha
# [4] = target: T2, Peroxisome proliferator-activated receptor alpha; test: In vitro inhibition of human Peroxisome proliferator activated receptor alpha
# [5] = test system: Mus musculus; test: Effect on level of triglyceride at a dose of 3 mg/kg in mice treated for 7 days; type: functional
SMILES,EC50 [1] [nM],EC50 [2] [nM],IC50 [3] [nM],IC50 [4] [nM],Triglyceride level [5] [%]
Cc1oc(-c2ccccc2)nc1CCOc1ccc(CC(C)(Oc2ccc(C(C)(C)C)cc2)C(=O)O)cc1 (centres undefined),211,11,515,149,
Cc1ccc(OC(C)(Cc2ccc(OCCc3nc(-c4cccc(-c5ccccc5)c4)oc3C)cc2)C(=O)O)cc1 (centres undefined),151,23,530,306,
Cc1oc(-c2ccc(-c3ccccc3)cc2)nc1CCOc1ccc(CC(C)(Oc2ccccc2)C(=O)O)cc1 (centres undefined),2340,,7020,,
Cc1oc(-c2ccc(-c3ccccc3)cc2)nc1CCOc1ccc(CC(C)(Oc2ccc(C(C)(C)C)cc2)C(=O)O)cc1 (centres undefined),1170,260,700,,
Cc1ccc(OC(C)(Cc2ccc(OCCc3nc(-c4ccc(-c5ccccc5)cc4)oc3C)cc2)C(=O)O)cc1 (centres undefined),1040,39,1460,375,
Cc1ccc(OC(C)(Cc2ccc(OCCc3nc(-c4ccccc4)oc3C)cc2)C(=O)O)cc1 (centres undefined),585,7,1400,64,
Cc1oc(-c2cccc(-c3ccccc3)c2)nc1CCOc1ccc(CC(C)(Oc2ccc(C(C)(C)C)cc2)C(=O)O)cc1 (centres undefined),91,49,146,133,~39
Cc1oc(-c2cccc(-c3ccccc3)c2)nc1CCOc1ccc(CC(C)(Oc2ccccc2)C(=O)O)cc1 (centres undefined),173,,404,,
Cc1oc(-c2ccccc2)nc1CCOc1ccc(CC(C)(Oc2ccccc2)C(=O)O)cc1 (centres undefined),,,,,~56
